The source of these data is patent EP0210291A1, “Platinum complexes of antitumor agents” (AMERICAN CYANAMID COMPANY, priority 1985, dated 1987).

Where “and” joins values, the source holds several entries; their conditions need not be identical. Equal values may be shown once. Where a name gives a salt, the structure may show the parent alone.

This assay concerns lymphocytic leukemia P388. As to the kind of experiment: Lymphocytic leukemia P388 test. The format is in vivo, BDF/1 mice. The conditions noted are these: for Median Survival: mice with P388 leukemia; for T/Cx100: survival time treated/control. The procedure: Lymphocytic leukemia P388 test
The animals used were BDF/1 mice all of one sex, weighing a minimum of 18 g and all within a 3 g weight range. There were 5 or 6 animals per test group. The tumor transplant was by intraperitoneal injection of 0.5 ml of dilute ascitic fluid containing 10⁶ cells of lymphocytic leukemia P388. The test compounds were administered intraperitoneally on days 1,5 and 9 relative to tumor inoculation, at various doses. The animals were weighed and survivors recorded on a regular basis for 30 days. The median survival time and the ratio of survival time for treated (T)/control (C) animals were calculated. The positive control compound was either 1,4-dihydroxy-5,8-bis[[2-(2-hydroxyethylamino)ethyl]-amino]anthraquinone dihydrochloride or Cisplatin.

[1] abbreviates: Mus musculus, P388, ip, read-out: T/Cx100.
Setting [2] is: dose 0.2 mg/kg intraperitoneally on days 1, 5 and 9.
[3] abbreviates: dose 0.6 mg/kg intraperitoneally on days 1, 5 and 9, 0.6 mg/kg.
[4] abbreviates: dose 0.8 mg/kg intraperitoneally on days 1, 5 and 9, 0.8 mg/kg.
Setting [5] is: dose 1.2 mg/kg intraperitoneally on days 1, 5 and 9.
[6] abbreviates: dose 1.25 mg/kg intraperitoneally on days 1, 5 and 9.
Setting [7] is: dose 1.5 mg/kg intraperitoneally on days 1, 5 and 9.
[8] abbreviates: dose 2.5 mg/kg intraperitoneally on days 1, 5 and 9.
The mark [9] stands for this setting: dose 50 mg/kg intraperitoneally on days 1, 5 and 9.
[10] abbreviates: dose 200 mg/kg intraperitoneally on days 1, 5 and 9.

On to `O=C1c2c(O)ccc(O)c2C(=O)c2c(NCCNCCO)ccc(NCCNCCO)c21` [1,4-dihydroxy-5,8-bis[[2-(2-hydroxyethylamino)ethyl]-amino]anthraquinone dihydrochloride], for which, under setting [1], the response vs control in vivo at 0.025 mg/kg came to 110%, the response vs control in vivo at 0.1 mg/kg was 136%, the response vs control in vivo at 0.4 mg/kg stood at 153% and the response vs control in vivo at 1.6 mg/kg was determined as 212%.
Turning to `N.N.[Cl][Pt][Cl]` [Cisplatin], the “Median Survival” value by setting is: under setting [2], 21 days; under setting [3], 21 days and 22.5 days; under setting [4], 26.5 days and 23.5 days; under setting [5], 22 days; under setting [6], 13.5 days; under setting [7], 22.5 days. Moreover, the “Median Survival” value under setting [8] amounted to 16 days. Moreover, the T/Cx100 runs as follows: under setting [2], 210%; under setting [3], 196% and 221%; under setting [4], 217% and 235%; under setting [5], 206%; under setting [6], 132%; under setting [7], 184%. This compound returned a T/Cx100 under setting [8] of 150%.
“hydrazinecarboximidamide, compound with platinum chloride (1:1)”: under setting [9], the “Median Survival” value is 20.5 days and the T/Cx100 was 174%. Moreover, under setting [10], the “Median Survival” value was 23 days and the T/Cx100 worked out at 195%.
